Test results from US20250122193A1, “NOVEL PYRIDOCARBAZOLIUM COMPOUNDS AND MEDICAL USES THEREOF” (MyCural Therapeutics, priority 2021, published 2025).

Legend:
MYCN:MAX interaction = molecular target: T1, MYCN:MAX interaction (Homo sapiens, UniProt P04198); assay: split Gaussia luciferase (GLuc) assay, MYCN:MAX; type: cell-based; details: HeLa cells
T1 construct: replacing the existing Zip-gene (GCN4) with full length MYC, MYCN or MAX cDNA; expressed in transfected cells; host or cells: HeLa
T1 sequence (P04198 1-464): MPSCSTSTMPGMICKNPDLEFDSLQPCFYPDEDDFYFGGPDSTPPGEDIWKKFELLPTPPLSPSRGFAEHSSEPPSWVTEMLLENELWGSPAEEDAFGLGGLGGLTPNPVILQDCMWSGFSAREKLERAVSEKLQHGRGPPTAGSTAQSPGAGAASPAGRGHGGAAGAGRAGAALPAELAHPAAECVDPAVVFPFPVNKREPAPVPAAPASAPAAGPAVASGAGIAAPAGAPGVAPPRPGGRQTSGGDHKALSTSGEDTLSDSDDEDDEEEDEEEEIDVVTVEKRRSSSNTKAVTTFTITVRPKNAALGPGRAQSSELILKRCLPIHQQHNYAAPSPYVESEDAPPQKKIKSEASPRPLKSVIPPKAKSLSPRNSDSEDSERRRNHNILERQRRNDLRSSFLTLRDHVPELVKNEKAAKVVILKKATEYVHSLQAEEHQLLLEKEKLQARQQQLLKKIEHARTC
Experimental: A) Molecular structure of MYCMI-7. B-E) split Gaussia luciferase (GLuc) assay. MYC or MYCN and MAX Gluc constructs were co-transfected into HeLa cells together with a firefly luciferase vector. 24 hours post transfection cells were treated with compounds, and after another 17-24 hours cells were harvested and both GLuc and firefly luciferase activities were measured. The mean of three different experiments is shown. Treatment with: B) 5 μM of MYCMI-7, 64 μM 10058-F4 or 5 μM JQ1, respectively, C) 6.5 μM MYCMI-7 on cells expressing MYC:MAX GLuc vs. GCN4:GCN4 GLuc, D) 5 μM MYCMI-7 and 5 μM ellipticine. E) 5 μM MYCMI-7 for various time points. F) in situ proximity ligation assay (isPLA). […] MYC:GAL4 was used as negative control in the isPLA assay. G) Quantification of isPLA dots. (H) Co-immunoprecipitation (co-IP) of endogenous MYC and MAX proteins from MCF7 cells after treatment with 5 μM MYCMI-7 at various times. IP=immunoprecipitation; W=western blot. I) Chromatin immunoprecipitation (ChIP) of MYC at the ODC1 target gene promoter after treatment of cells with 5 μM MYCMI-7 for 6 hours. J) MYC target gene ODC1 expression after treatment with 5 μM MYCMI-7, quantified by qPCR. […] L) Recombinant MYC bHLHZip protein domain immobilized onto a CM5 chip was subjected to various concentrations of MYCMI-7 and the complex of MYCbHLHZip-MYCMI-7 was measured as response units by SPR. […]
0.2-0.4 μg of each GLuc-construct together with 0.05 μg pCMV-LUC (firefly luciferase) were used per transfection in 12 well plates. […] After 60 min incubation at room temperature 20 μM D-luciferin was added (substrate of Firefly luciferase) and luminescence was measured in a Lumat LB9501 (Berthold) or OmegaFluostar (BMG Labtech) luminometer. Directly after, Gaussia luciferase substrate Coelenterazine (Promega) was added to a final concentration of 20 μM in a mixture with “Stop n' Glow” (Promega) and the luciferase activity was measured. The ratio between Gaussia and Firefly luciferase values were calculated and normalized to DMSO-treated control cells.

MYC:MAX interaction = MYC:MAX interaction (Homo sapiens, UniProt P01106); assay: split Gaussia luciferase (GLuc) assay, MYC:MAX; type: cell-based; parameters: replacing the existing Zip-gene (GCN4) with full length MYC, MYCN or MAX cDNA; expressed in transfected cells; host or cells: HeLa; details: HeLa cells
Sequence of MYC:MAX interaction (P01106 16-454): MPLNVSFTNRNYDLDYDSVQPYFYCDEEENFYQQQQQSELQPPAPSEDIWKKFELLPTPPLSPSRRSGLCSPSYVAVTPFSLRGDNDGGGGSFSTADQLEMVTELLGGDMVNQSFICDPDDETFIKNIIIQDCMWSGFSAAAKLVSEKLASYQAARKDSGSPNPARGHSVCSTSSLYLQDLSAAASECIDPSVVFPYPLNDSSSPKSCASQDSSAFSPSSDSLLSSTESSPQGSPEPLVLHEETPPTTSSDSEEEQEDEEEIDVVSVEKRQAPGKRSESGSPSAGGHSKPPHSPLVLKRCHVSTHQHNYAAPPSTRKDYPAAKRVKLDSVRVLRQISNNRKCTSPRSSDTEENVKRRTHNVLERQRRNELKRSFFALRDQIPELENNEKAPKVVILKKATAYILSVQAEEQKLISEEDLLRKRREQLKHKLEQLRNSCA
Experimental: A) Molecular structure of MYCMI-7. B-E) split Gaussia luciferase (GLuc) assay. MYC or MYCN and MAX Gluc constructs were co-transfected into HeLa cells together with a firefly luciferase vector. 24 hours post transfection cells were treated with compounds, and after another 17-24 hours cells were harvested and both GLuc and firefly luciferase activities were measured. The mean of three different experiments is shown. Treatment with: B) 5 μM of MYCMI-7, 64 μM 10058-F4 or 5 μM JQ1, respectively, C) 6.5 μM MYCMI-7 on cells expressing MYC:MAX GLuc vs. GCN4:GCN4 GLuc, D) 5 μM MYCMI-7 and 5 μM ellipticine. E) 5 μM MYCMI-7 for various time points. F) in situ proximity ligation assay (isPLA). […] MYC:GAL4 was used as negative control in the isPLA assay. G) Quantification of isPLA dots. (H) Co-immunoprecipitation (co-IP) of endogenous MYC and MAX proteins from MCF7 cells after treatment with 5 μM MYCMI-7 at various times. IP=immunoprecipitation; W=western blot. I) Chromatin immunoprecipitation (ChIP) of MYC at the ODC1 target gene promoter after treatment of cells with 5 μM MYCMI-7 for 6 hours. J) MYC target gene ODC1 expression after treatment with 5 μM MYCMI-7, quantified by qPCR. K) ChIP of MYC at the ODC promoter in MCF7 cells after 5 μM MYCMI-7 treatment for indicated time points. L) Recombinant MYC bHLHZip protein domain immobilized onto a CM5 chip was subjected to various concentrations of MYCMI-7 and the complex of MYCbHLHZip-MYCMI-7 was measured as response units by SPR. The sensogram was produced by subtracting the blank response.
0.2-0.4 μg of each GLuc-construct together with 0.05 μg pCMV-LUC (firefly luciferase) were used per transfection in 12 well plates. 24 hours later cells were treated with compound or DMSO. After another 17 hours, the cells were harvested and lyzed in passive lysis buffer (Promega) supplemented with complete protease inhibitor (Roche). After 60 min incubation at room temperature 20 μM D-luciferin was added (substrate of Firefly luciferase) and luminescence was measured in a Lumat LB9501 (Berthold) or OmegaFluostar (BMG Labtech) luminometer. Directly after, Gaussia luciferase substrate Coelenterazine (Promega) was added to a final concentration of 20 μM in a mixture with “Stop n' Glow” (Promega) and the luciferase activity was measured. The ratio between Gaussia and Firefly luciferase values were calculated and normalized to DMSO-treated control cells.

Recombinant human Top2a = Recombinant human Top2a (Homo sapiens, UniProt P11388); assay: Top2 decatenation assay; type: biochemical; details: for effect on TOP2A activity: 1-100 μM
Sequence of Recombinant human Top2a (P11388 whole entry): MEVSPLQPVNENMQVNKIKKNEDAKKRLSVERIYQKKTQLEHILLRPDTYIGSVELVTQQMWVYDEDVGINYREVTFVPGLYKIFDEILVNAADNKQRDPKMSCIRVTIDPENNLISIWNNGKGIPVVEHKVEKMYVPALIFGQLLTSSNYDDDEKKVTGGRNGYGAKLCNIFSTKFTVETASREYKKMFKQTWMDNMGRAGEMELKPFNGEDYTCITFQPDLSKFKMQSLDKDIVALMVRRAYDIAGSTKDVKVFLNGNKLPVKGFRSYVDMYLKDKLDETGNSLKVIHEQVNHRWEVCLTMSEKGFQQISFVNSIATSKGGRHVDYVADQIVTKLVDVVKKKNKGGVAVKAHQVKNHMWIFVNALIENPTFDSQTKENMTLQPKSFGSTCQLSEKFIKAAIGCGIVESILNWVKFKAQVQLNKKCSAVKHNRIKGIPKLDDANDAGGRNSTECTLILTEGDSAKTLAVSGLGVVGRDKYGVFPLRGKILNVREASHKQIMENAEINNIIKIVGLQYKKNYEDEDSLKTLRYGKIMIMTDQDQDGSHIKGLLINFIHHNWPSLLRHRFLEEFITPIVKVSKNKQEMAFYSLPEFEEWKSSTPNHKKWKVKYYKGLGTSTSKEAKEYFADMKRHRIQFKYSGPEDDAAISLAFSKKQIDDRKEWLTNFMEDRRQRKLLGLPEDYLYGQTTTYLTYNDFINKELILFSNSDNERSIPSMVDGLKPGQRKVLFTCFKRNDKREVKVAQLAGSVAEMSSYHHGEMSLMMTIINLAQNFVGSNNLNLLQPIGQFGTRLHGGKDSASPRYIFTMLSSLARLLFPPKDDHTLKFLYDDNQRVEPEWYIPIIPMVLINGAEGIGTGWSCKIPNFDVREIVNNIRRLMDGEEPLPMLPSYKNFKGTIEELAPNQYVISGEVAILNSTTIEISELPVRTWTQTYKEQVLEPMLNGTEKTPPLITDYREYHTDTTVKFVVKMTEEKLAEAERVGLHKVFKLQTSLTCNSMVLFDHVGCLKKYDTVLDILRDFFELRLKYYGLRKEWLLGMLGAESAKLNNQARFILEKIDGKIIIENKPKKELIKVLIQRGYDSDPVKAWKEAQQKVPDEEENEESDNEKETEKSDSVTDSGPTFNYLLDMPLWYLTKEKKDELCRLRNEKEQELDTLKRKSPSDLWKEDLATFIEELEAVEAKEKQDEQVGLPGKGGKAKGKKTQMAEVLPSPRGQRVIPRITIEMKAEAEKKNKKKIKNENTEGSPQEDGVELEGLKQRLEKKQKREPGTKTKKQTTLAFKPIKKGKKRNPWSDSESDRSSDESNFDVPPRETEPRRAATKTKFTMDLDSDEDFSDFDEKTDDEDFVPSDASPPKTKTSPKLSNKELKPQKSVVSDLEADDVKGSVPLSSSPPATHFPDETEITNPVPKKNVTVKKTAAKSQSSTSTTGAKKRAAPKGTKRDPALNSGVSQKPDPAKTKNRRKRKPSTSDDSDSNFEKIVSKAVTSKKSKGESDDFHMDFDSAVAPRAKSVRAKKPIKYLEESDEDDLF
Experimental: Top2 decatenation assay: Recombinant human Top2a (15 nM) was incubated with 80 ng catenated kinetoplast DNA (Topogen, TG2013) in Top2 reaction buffer (50 mM Tris pH8, 150 mM NaCl, 10 mM MgCl2, 0.5 mM DTT, 30 μg/ml BSA) with 1-100 μM of either doxorubicin, MYCMI-7, ellipticine or camptothecin for 10 minutes at 37° C. Drug dilutions were made in a DMSO/H2O solution so that a final concentration of 1% DMSO was consistent across all samples. The reaction was stopped with the addition of SDS to a final concentration of 1% and the Top2a was digested by Proteinase K at 55° C. for 10 minutes. DNA was purified by phenol:chloroform extraction before running on a 1% agarose gel either containing or post-stained with 0.5 μg/ml ethidium bromide. The decatenated products were quantified, normalised to the Top2α+DMSO control and plotted using GraphPad Prism.
First, we utilized an in vitro TOP2A decatenation assay. TOP2 enzymes decatenate kinetoplast DNA (kDNA) converting a network of interlocking DNA rings into individual rings that can be separated by agarose gel electrophoresis.

p53 expression = p53 expression by western blot; type: cell-based; details: 5 μM, HCT116 cells
Experimental: (§1) A) Measurement of MYC mRNA expression by RTqPCR after treatment with MYCMI-7 and different topoisomerase inhibitors at indicated concentrations. […] D) Western blot analysis of p53 and p21 expression after exposure to 5 μM MYCMI-7, ellipticine or camptothecin (CPT) in HCT116 cells. E) Western blot analysis of phospho-ATM, total ATM and p53 expression after exposure to indicated concentrations of MYCMI-7 and ellipticine in A375 cells after 3 hrs treatment.
(§2) For western blot equal amounts of proteins ([…]) were separated on a 4-12% SDS-PAGE gel. Proteins were transferred to Immobilion-P membrane (Millipore) and detected by immunostaining and chemoluminescence (Immobilion western HRP substrate; Millipore). For immunoprecipitations 500-1000 μg of protein was used. […] Briefly, cells were crosslinked with 1% formaldehyde on ice for 6 minutes. Nuclear chromatin was sonicated on ice to fragments from 0.3 kb to 0.5 kb. Nuclear chromatin equivalent to 2.5×10^7 cells was immunoprecipitated with 2 μg antibody.

MYC mRNA = MYC mRNA expression by RT-qPCR; type: cell-based; details: 1 μM
Experimental: as §1

[1] = tested on: Rat1 fibroblasts TGR1 (wt MYC) and HOMyc3 (reconstituted MYC); assay: WST-1 growth/viability assay, MYC-expressing Rat1 fibroblasts; type: cell-based, rat; details: TGR1, HO15.19 and HOMyc3
Experimental: A) Immortalized Rat1 fibroblasts with different MYC status; TGR1 (wt MYC), HO15.19 (MYC−/−) and HOMyc3 (HO15.19 with reconstituted MYC) were treated with indicated concentrations of MYCMI-7 for 48 hours. Cell proliferation/viability/metabolic activity was measured using the WST-1 assay. […] “Responsive” and “less responsive”; cell lines with positive and negative log 10 GI50 values, respectively. […] For the WST-1 assays the average of three different experiments performed in triplicates is shown.
Cell growth and viability assays: Cell growth and viability was estimated in triplicates with WST-1 (Roche) or Resazurin sodium salt (Sigma-Aldrich) assays in medium at 37° C. and 5% CO2 for 2 hours after which absorbance or fluorescence, respectively, was measured with an Omega Fluostar (BMG Labtech) in a 96 well plate format.

phosphorylation of ATM = assay: phospho-ATM and p53 by western blot, A375; type: cell-based; details: 5 μM, A375 cells, 3 hrs
Experimental: as §1, §2

Compound: CCc1ccc(/C=C2/SC(=S)NC2=O)cc1 [Example 10058-F4, 10058-F4]
- inhibition of MYCN:MAX GLuc interaction (MYCN:MAX interaction; 64 μM): only weak effects
- inhibition of MYC:MAX GLuc interaction (MYC:MAX interaction; 64 μM): only weak effects

Compound: Cc1sc2c(c1C)C(c1ccc(Cl)cc1)=N[C@@H](CC(=O)OC(C)(C)C)c1nnc(C)n1-2 [JQ1]
- inhibition of MYCN:MAX GLuc interaction (MYCN:MAX interaction; 5 μM): only weak effects
- inhibition of MYC:MAX GLuc interaction (MYC:MAX interaction; 5 μM): only weak effects

Compound: CC[C@@]1(O)C(=O)OCc2c1cc1n(c2=O)Cc2cc3ccccc3nc2-1 [camptothecin, reference compound]
- effect on TOP2A activity (Recombinant human Top2a): no effect
- p53 expression (p53 expression): induced p53 expression

Compound: COc1cccc2c1C(=O)c1c(O)c3c(c(O)c1C2=O)C[C@@](O)(C(=O)CO)C[C@@H]3O[C@H]1C[C@H](N)[C@H](O)[C@H](C)O1 [doxorubicin]
- MYC expression (mRNA) (MYC mRNA): strongly reduced
- concentration at which TOP2A inhibition starts (Recombinant human Top2a; in vitro decatenation of kDNA): 3 µM
- concentration of complete TOP2A inhibition (Recombinant human Top2a; in vitro decatenation of kDNA): 10 µM

Compound: Cc1c2ccncc2c(C)c2c1[nH]c1ccccc12 [ellipticine, reference compound]
- growth of Rat1 cell clones irrespective of MYC status [1]: reduced growth of all three cell clones
- effect on TOP2A activity (Recombinant human Top2a): no effect
- p53 expression (p53 expression): induced p53 expression
- phosphorylation of ATM and p53 expression (DDR signaling) (phosphorylation of ATM): strongly induced
- inhibition of MYC:MAX GLuc interaction (MYC:MAX interaction; 5 μM): inactive
